System: human monocyte stimulated cytokine production (TNF-α)
Assay: Monocyte assay (LPS-stimulated TNF-α production)
Assay type: cell-based
Settings: for IC50: human CD14+ monocytes, 200 ng/mL LPS, 24 hrs, values given as 'about', read-out: pIC50 in the monocyte assay (converted); for inhibition at 0.3 µM: 300 nM, human monocytes, LPS
Protocol: Effect of IKK-β inhibition on human monocyte stimulated cytokine production was assessed as follows: Monocytes were isolated from heparinized whole blood by Ficoll gradient, followed by purification of CD14+ cells using MACS magnetic cell separation beads. Isolated monocytes were then adhered to 96-well culture plates at 1×10^6 cells/mL in RPMI 1640 10% FBS (JRH Biosciences, Lenexa Kans.) for 2 h. Test compounds are added to the wells 30 minutes prior to stimulation with a final vehicle concentration of 0.1% DMSO. Monocytes were activated by the addition of 200 ng/mL endotoxin (LPS; E. coli serotype 026:B6) (Sigma, St. Louis, Mo.) and incubated for 24 hrs at 37 C. Cell-free supernates were analyzed by Alphascreen™ (Perkin Elmer, Waltham, Mass.) for TNF-α using R&D Systems matched pair Abs. Viability of the cells was determined by 10% trypan blue exclusion.

Row | IC50 [nM] | SMILES | inhibition at 0.3 µM [%]
1 | 5.01 to 1000 | NC(=O)c1cc(-c2nccs2)cc2c(C3CCS(=O)(=O)CC3)c[nH]c12 [Example 85, 3-(1,1-Dioxidotetrahydro-2H-thiopyran-4-yl)-5-(1,3-thiazol-2-yl)-1H-indole-7-carboxamide] | –
2 | 5.01 to 1000 | NC(=O)c1cc(-c2csc(CC3CC3)c2)cc2c(C3CCS(=O)(=O)CC3)c[nH]c12 [Example 97, 5-[5-(Cyclopropylmethyl)-3-thienyl]-3-(1,1-dioxidotetrahydro-2H-thiopyran-4-yl)-1H-indole-7-carboxamide] | –
3 | 5.01 to 1000 | COCc1ccc(-c2cc(C(N)=O)c3[nH]cc(C4CCS(=O)(=O)CC4)c3c2)s1 [Example 98, 3-(1,1-Dioxidotetrahydro-2H-thiopyran-4-yl)-5-{5-[(methyloxy)methyl]-2-thienyl}-1H-indole-7-carboxamide] | –
4 | > 1000 | Cc1n[nH]c(C)c1-c1cc(C(N)=O)c2[nH]cc(C3CCS(=O)(=O)CC3)c2c1 [Example 140, 5-(3,5-Dimethyl-1H-pyrazol-4-yl)-3-(1,1-dioxidotetrahydro-2H-thiopyran-4-yl)-1H-indole-7-carboxamide] | –
5 | 5.01 to 1000 | NC(=O)c1c(F)c(-c2ccccc2)cc2c(C3CCS(=O)(=O)CC3)c[nH]c12 [Example 168, 3-(1,1-Dioxidotetrahydro-2H-thiopyran-4-yl)-6-fluoro-5-phenyl-1H-indole-7-carboxamide] | –
6 | 5.01 to 1000 | NC(=O)c1cc(-c2ccccc2)c(F)c2c(C3CCS(=O)(=O)CC3)c[nH]c12 [Example 169, 3-(1,1-Dioxidotetrahydro-2H-thiopyran-4-yl)-4-fluoro-5-phenyl-1H-indole-7-carboxamide] | –
7 | 5.01 to 1000 | NC(=O)c1cc(-c2ccsc2)c(F)c2c(C3CCS(=O)(=O)CC3)c[nH]c12 [Example 170, 3-(1,1-Dioxidotetrahydro-2H-thiopyran-4-yl)-4-fluoro-5-(3-thienyl)-1H-indole-7-carboxamide] | –
8 | 5.01 to 1000 | COC(=O)c1cc(-c2ccc(F)cc2)cc2c([C@@H]3CCSC3)c[nH]c12 [Example 172, Methyl 5-(4-fluorophenyl)-3-[(3S)-tetrahydro-3-thienyl]-1H-indole-7-carboxylate] | –
9 | 5.01 to 1000 | COC(=O)c1cc(-c2ccc(F)cc2)cc2c([C@H]3CCSC3)c[nH]c12 [Example 173, methyl 5-(4-fluorophenyl)-3-[(3R)-tetrahydro-3-thienyl]-1H-indole-7-carboxylate] | –
10 | 5.01 to 1000 | NC(=O)c1cc(-c2csc(CN3CCC3)c2)cc2c(C3CCS(=O)(=O)C3)c[nH]c12 (centres unmarked) [Example 185, 5-[5-(1-Azetidinylmethyl)-3-thienyl]-3-(1,1-dioxidotetrahydro-3-thienyl)-1H-indole-7-carboxamide] | –
11 | – | NC(=O)c1cc(-c2csc(CN3CCCCCC3)c2)cc2c(C3CCS(=O)(=O)C3)c[nH]c12 (centres unmarked) [Example 186, 3-(1,1-Dioxidotetrahydro-3-thienyl)-5-[5-(hexahydro-1H-azepin-1-ylmethyl)-3-thienyl]-1H-indole-7-carboxamide] | 0 to 100
12 | 5.01 to 1000 | NC(=O)c1cc(-c2csc(CN3CCCC3)c2)cc2c(C3CCS(=O)(=O)C3)c[nH]c12 (centres unmarked) [Example 187, 3-(1,1-Dioxidotetrahydro-3-thienyl)-5-[5-(1-pyrrolidinylmethyl)-3-thienyl]-1H-indole-7-carboxamide] | –
13 | 5.01 to 1000 | NC(=O)c1cc(-c2ccco2)cc2c(C3CCS(=O)(=O)C3)c[nH]c12 (centres unmarked) [Example 188, 3-(1,1-Dioxidotetrahydro-3-thienyl)-5-(2-furanyl)-1H-indole-7-carboxamide] | –
14 | > 1000 | NC(=O)c1cc(-c2ccoc2)cc2c(C3CCS(=O)(=O)C3)c[nH]c12 (centres unmarked) [Example 189, 3-(1,1-Dioxidotetrahydro-3-thienyl)-5-(3-furanyl)-1H-indole-7-carboxamide] | –
15 | 5.01 to 1000 | NC(=O)c1cc(-c2cccs2)cc2c(C3CCS(=O)(=O)C3)c[nH]c12 (centres unmarked) [Example 190, 3-(1,1-Dioxidotetrahydro-3-thienyl)-5-(2-thienyl)-1H-indole-7-carboxamide] | –
16 | 5.01 to 1000 | NC(=O)c1cc(-c2ccc3sccc3c2)cc2c(C3CCS(=O)(=O)C3)c[nH]c12 (centres unmarked) [Example 191, 5-(1-Benzothien-5-yl)-3-(1,1-dioxidotetrahydro-3-thienyl)-1H-indole-7-carboxamide] | –
17 | – | NC(=O)c1cc(-c2ccccc2)cc2c(C3CC4CCC(C3)S4(=O)=O)c[nH]c12 (stereo not drawn) [Example 192, 3-[(3-endo)-8,8-Dioxido-8-thiabicyclo[3.2.1]oct-3-yl]-5-phenyl-1H-indole-7-carboxamide] | 0 to 100
18 | 5.01 to 1000 | NC(=O)c1cc(-c2csc(CN3CCCCCC3)c2)cc2c(C3CC4CCC(C3)S4(=O)=O)c[nH]c12 (stereo not drawn) [Example 203, 3-[(3-endo)-8,8-Dioxido-8-thiabicyclo[3.2.1]oct-3-yl]-5-[5-(hexahydro-1H-azepin-1-ylmethyl)-3-thienyl]-1H-indole-7-carboxamide] | –

Row | IC50 [nM] | SMILES | inhibition at 0.3 µM [%]
19 | – | NC(=O)c1cc(-c2csc(CN3CCC3)c2)cc2c(C3CC4CCC(C3)S4(=O)=O)c[nH]c12 (stereo not drawn) [Example 204, 3-[(3-endo)-8,8-Dioxido-8-thiabicyclo[3.2.1]oct-3-yl]-5-[5-(1-azetidinylmethyl)-3-thienyl]-1H-indole-7-carboxamide] | 0 to 100
20 | 5.01 to 1000 | NC(=O)c1cc(-c2csc(CN3CCCC3)c2)cc2c(C3CC4CCC(C3)S4(=O)=O)c[nH]c12 (stereo not drawn) [Example 205, 3-[(3-endo)-8,8-Dioxido-8-thiabicyclo[3.2.1]oct-3-yl]-5-[5-(1-pyrrolidinylmethyl)-3-thienyl]-1H-indole-7-carboxamide] | –
21 | – | NC(=O)c1cc(-c2csc(CN3CCCCCC3)c2)cc2c(C3CC4CCC(C3)S4(=O)=O)c[nH]c12 (stereo not drawn) [Example 208, 3-[(3-exo)-8,8-Dioxido-8-thiabicyclo[3.2.1]oct-3-yl]-5-[5-(hexahydro-1H-azepin-1-ylmethyl)-3-thienyl]-1H-indole-7-carboxamide] | 0 to 100
22 | 5.01 to 1000 | NC(=O)c1cc(-c2ccccc2)cc2c(C3CCCS(=O)(=O)CC3)c[nH]c12 (centres unmarked) [Example 212, 3-(1,1-Dioxido-4-thiepanyl)-5-phenyl-1H-indole-7-carboxamide] | –
23 | – | NC(=O)c1cc(-c2ccoc2)cc2c(C3CCCS(=O)(=O)C3)c[nH]c12 (centres unmarked) [Example 217, 3-(1,1-Dioxidotetrahydro-2H-thiopyran-3-yl)-5-(3-furanyl)-1H-indole-7-carboxamide] | 0 to 100
24 | 5.01 to 1000 | NC(=O)c1cc(-c2ccco2)cc2c(C3CCCS(=O)(=O)C3)c[nH]c12 (centres unmarked) [Example 218, 3-(1,1-Dioxidotetrahydro-2H-thiopyran-3-yl)-5-(2-furanyl)-1H-indole-7-carboxamide] | –
25 | 5.01 to 1000 | NC(=O)c1cc(-c2ccsc2)cc2c(C3CCCS(=O)(=O)C3)c[nH]c12 (centres unmarked) [Example 219, 3-(1,1-Dioxidotetrahydro-2H-thiopyran-3-yl)-5-(3-thienyl)-1H-indole-7-carboxamide] | –
26 | – | NC(=O)c1cc(-c2ccc(F)cc2)cc2c(C3CCCS(=O)(=O)C3)c[nH]c12 (centres unmarked) [Example 220, 3-(1,1-Dioxidotetrahydro-2H-thiopyran-3-yl)-5-(4-fluorophenyl)-1H-indole-7-carboxamide] | 0 to 100
27 | – | NC(=O)c1cc(-c2ccccc2)cc2c(C3CCCS(=O)(=O)C3)c[nH]c12 (centres unmarked) [Example 221, 3-(1,1-Dioxidotetrahydro-2H-thiopyran-3-yl)-5-phenyl-1H-indole-7-carboxamide] | 0 to 100
28 | – | NC(=O)c1cc(-c2cccs2)cc2c(C3CCCS(=O)(=O)C3)c[nH]c12 (centres unmarked) [Example 222, 3-(1,1-Dioxidotetrahydro-2H-thiopyran-3-yl)-5-(2-thienyl)-1H-indole-7-carboxamide] | 0 to 100
29 | > 1000 | CC1(C)C[C@@H](c2c[nH]c3c(C(N)=O)cc(-c4ccc(F)cc4)cc23)CCS1(=O)=O [Example 224, 3-[(4S)-2,2-Dimethyl-1,1-dioxidotetrahydro-2H-thiopyran-4-yl]-5-(4-fluorophenyl)-1H-indole-7-carboxamide] | –
30 | 5.01 to 1000 | CC1(C)C[C@H](c2c[nH]c3c(C(N)=O)cc(-c4ccc(F)cc4)cc23)CCS1(=O)=O [Example 225, 3-[(4R)-2,2-dimethyl-1,1-dioxidotetrahydro-2H-thiopyran-4-yl]-5-(4-fluorophenyl)-1H-indole-7-carboxamide] | –
31 | 5.01 to 1000 | CC1(C)CC(c2c[nH]c3c(C(N)=O)cc(-c4ccccc4)cc23)CCS1(=O)=O (centres unmarked) [Example 226, 3-(2,2-Dimethyl-1,1-dioxidotetrahydro-2H-thiopyran-4-yl)-5-phenyl-1H-indole-7-carboxamide] | –
32 | 5.01 to 1000 | CC1(C)CC(c2c[nH]c3c(C(N)=O)cc(-c4ccsc4)cc23)CCS1(=O)=O (centres unmarked) [Example 227, 3-(2,2-Dimethyl-1,1-dioxidotetrahydro-2H-thiopyran-4-yl)-5-(3-thienyl)-1H-indole-7-carboxamide] | –
33 | 5.01 to 1000 | CC1(C)CC(c2c[nH]c3c(C(N)=O)cc(-c4ccoc4)cc23)CCS1(=O)=O (centres unmarked) [Example 228, 3-(2,2-Dimethyl-1,1-dioxidotetrahydro-2H-thiopyran-4-yl)-5-(3-furanyl)-1H-indole-7-carboxamide] | –
34 | – | CC1(C)CC(c2c[nH]c3c(C(N)=O)cc(-c4csc(CN5CCCCCC5)c4)cc23)CCS1(=O)=O (centres unmarked) [Example 231, 3-(2,2-Dimethyl-1,1-dioxidotetrahydro-2H-thiopyran-4-yl)-5-[5-(hexahydro-1H-azepin-1-ylmethyl)-3-thienyl]-1H-indole-7-carboxamide] | 0 to 100
35 | 5.01 to 1000 | CN(C)Cc1cc(-c2cc(C(N)=O)c3[nH]cc(C4CCS(=O)(=O)C(C)(C)C4)c3c2)cs1 (centres unmarked) [Example 232, 5-{5-[(Dimethylamino)methyl]-3-thienyl}-3-(2,2-dimethyl-1,1-dioxidotetrahydro-2H-thiopyran-4-yl)-1H-indole-7-carboxamide] | –

— patent publication US8071584B2 (GlaxoSmithKline LLC, priority 2007, dated 2011)
